Reference: PubChem BioAssay (NCI)
Several values for one entry are separate records, joined by “and”; a condition that tells them apart may be missing. Equal entries are not always repeated.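 These data come from cells grown in 96-well plates and exposed to compound for 48 hours at five concentrations. GI50: concentration for 50% inhibition of growth. TGI: total growth inhibition.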

What follows are molecules tested on MDA-MB-468 breast (assay: growth of human tumour cells (NCI), 48 h).

**Q.** Which GI50 does the source give for `Nc1nc(-c2ccc3c(c2)/C(=C\c2cc(Br)c(O)c(Br)c2)C(=O)N3)cs1` here?
**A.** The GI50 was 6.5 µM.

**Q.** What about the TGI of the same molecule?
**A.** The TGI was greater than 22.8 µM.

**Q.** What does the source list for `CC1=CC2(C)/C=C(C)/C=C\CC(O)/C=C3/C=CC(=C4C(=O)OC2(CC1C)C4=O)OC3` (configuration not stated)?
**A.** GI50: 1.18 µM; TGI: 2.85 µM

**Q.** `C[C@@H]1CC[C@@H]2[C@@H]1[C@H](OC(=O)/C=C/C1CCCCC1)[C@]1(C3CCCCC3)C[C@@H](OC(=O)CO)[C@@]2(C)O1` was tested. Which GI50 did it give?
**A.** Its GI50 is 13.4 µM.

**Q.** What about the TGI of the same molecule?
**A.** Its TGI is 27.5 µM.

**Q.** `Cc1ccsc1C(NC(=O)c1ccccc1)c1cc(Cl)c2cccnc2c1O` (configuration not stated) was tested. Which GI50 did it give?
**A.** The GI50 was 0.602 µM.

**Q.** What about the TGI of the same molecule?
**A.** The TGI was 5.63 µM.

**Q.** What does the source list for `CCN1CCN(c2ccc(NC(=O)Nc3nc4ccc(-c5ccccc5OC)cc4s3)cc2)CC1`?
**A.** GI50: 2.17 µM; TGI: 4.03 µM

**Q.** With `COc1nn(C)cc1Nc1nccc(-c2c[nH]c3c(NC(=O)[C@@H](C)N4CCN(C)CC4)cccc23)n1` as the molecule, how does the GI50 read?
**A.** Its GI50 is 25 µM.

**Q.** And the TGI?
**A.** The TGI was 67.8 µM.

**Q.** With `COc1ccc2c3ccnc(C(F)(F)F)c3n(CCCCN)c2c1` as the molecule, how does the GI50 read?
**A.** Its GI50 is 3.22 µM.

**Q.** And the TGI?
**A.** Its TGI is 13.4 µM.

**Q.** How did the GI50 turn out when `CN1C(=O)N(C)C2C1NC(=S)N2/N=C/C=C/c1ccccc1[N+](=O)[O-]` (configuration not stated) was run?
**A.** Its GI50 is 0.431 µM.

**Q.** What about the TGI of the same molecule?
**A.** The TGI was 88.2 µM.

**Q.** Which results are given for `CCOP(=O)(OCC)/C(=C/n1c(=S)[nH]c2ccccc21)C(=O)OC`?
**A.** GI50: > 100 µM; TGI: > 100 µM

**Q.** Which results are given for `CCOC(=O)C1=C(Nc2ccc(OC)cc2)C(N)=NC1=N`?
**A.** GI50: 0.474 µM; TGI: > 100 µM

**Q.** What does the source list for `NC(=Nc1ccccc1)N/N=C/c1c[nH]c2ccccc12`?
**A.** GI50: 0.501 µM; TGI: 1.87 µM

**Q.** With `Cc1cc(OCc2ccc(C(F)(F)F)cc2)c2c(c1)C(=O)C=C(NCCN1CCCC1)C2=O` as the molecule, how does the GI50 read?
**A.** Its GI50 is 2 µM.

**Q.** What about the TGI of the same molecule?
**A.** Its TGI is 4.55 µM.

**Q.** `CC(C)[C@@H](C(=O)O[C@@H]1/C=C/C(=O)O[C@@H](C)CCC/C=C/[C@@H]2C[C@H](O)C[C@H]21)N(C)C` was tested. Which GI50 did it give?
**A.** Its GI50 is 1.53 µM.

**Q.** What about the TGI of the same molecule?
**A.** The TGI was 6.18 µM.

**Q.** For `Cc1[nH]nc(C(F)(F)F)c1Cc1sc2c(c1C(=O)N1C[C@](C)(O)CO1)c(=O)n(C)c(=O)n2C(C)C`, which GI50 is on record?
**A.** The GI50 was greater than 100 µM.

**Q.** What about the TGI of the same molecule?
**A.** Its TGI is greater than 100 µM.

**Q.** `O=C(Nc1cccc([N+](=O)[O-])c1)c1cccc(C(=O)Nc2cccc([N+](=O)[O-])c2)c1` was tested. Which GI50 did it give?
**A.** The GI50 was greater than 100 µM.

**Q.** And the TGI?
**A.** The TGI was greater than 100 µM.

**Q.** Which GI50 does the source give for `O=C(Nc1nc2c(C(F)(F)F)cccc2s1)c1cc(Cl)ccc1O` here?
**A.** The GI50 was 0.226 µM.

**Q.** What about the TGI of the same molecule?
**A.** The TGI was 0.749 µM.

**Q.** For `Clc1cnc(Nc2ccc(OCCN3CCCC3)cc2)nc1NCc1ccco1`, which GI50 is on record?
**A.** The GI50 was 2.37 µM.

**Q.** What about the TGI of the same molecule?
**A.** Its TGI is 5.1 µM.

**Q.** For `O=C1C2=C(C(=O)c3ccccc31)C(O)(S(=O)(=O)O)C(O)(S(=O)(=O)O)C1N=CC=CC21` (configuration not stated), which GI50 is on record?
**A.** Its GI50 is 10.6 µM and 4.29 µM.

**Q.** And the TGI?
**A.** Its TGI is 37.5 µM and 21.2 µM.

**Q.** Which GI50 does the source give for `COc1ccc(C(=O)/C=C/c2ccc(OCc3cccc(C(F)(F)F)c3)c(OC)c2)cc1OC` here?
**A.** Its GI50 is 107 µM.

**Q.** What about the TGI of the same molecule?
**A.** The TGI was greater than 1000 µM.

**Q.** Which results are given for `Oc1c(C(c2ccc(F)cc2)N2CCCCC2)ccc2cncnc12` (configuration not stated)?
**A.** GI50: 0.494 µM; TGI: 8.47 µM

**Q.** Which results are given for `CCCCCCCCN(CCCCCCCC)CC(O)c1cc(-c2ccccc2)nc2ccc(OC)cc12` (configuration not stated)?
**A.** GI50: 39.2 µM; TGI: > 100 µM

**Q.** What does the source list for `CN1CCN(Cc2ccc(NC(=O)c3cncc(C#Cc4ccc(N)nc4)c3)cc2C(F)(F)F)CC1`?
**A.** GI50: 1.01 µM; TGI: 4.3 µM

**Q.** `Cn1nc(C(F)(F)F)cc1-c1cc(Cl)c(OCc2ccc(Cl)cc2)c(-c2ccc(Cl)c(C(F)(F)F)c2)c1O` was tested. Which GI50 did it give?
**A.** Its GI50 is 0.833 µM.

**Q.** And the TGI?
**A.** The TGI was 4.97 µM.

**Q.** How did the GI50 turn out when `COc1cc(OC)c(/C=C/C(=O)c2c(OC)cc(OC)cc2OC)c(OC)c1` was run?
**A.** Its GI50 is 0.7 µM.

**Q.** And the TGI?
**A.** Its TGI is 4.55 µM.

**Q.** With `N#C/C(=C\c1ccc[nH]1)c1cc(-c2ccc(Cl)cc2)nn1-c1ccccc1` as the molecule, how does the GI50 read?
**A.** The GI50 was 0.269 µM.

**Q.** What about the TGI of the same molecule?
**A.** The TGI was 2.23 µM.

**Q.** What does the source list for `CC(C)(C)NCC(O)c1ccccc1Cl` (configuration not stated)?
**A.** GI50: > 100 µM; TGI: > 100 µM

**Q.** For `Cc1c(C(=O)Nc2ccc(N3C[C@@H](C)O[C@@H](C)C3)nc2)cccc1-c1ccc(OC(F)(F)F)cc1`, which GI50 is on record?
**A.** Its GI50 is 3.11 µM and 5.62 µM.

**Q.** And the TGI?
**A.** Its TGI is 19.2 µM and 31.7 µM.

**Q.** Which GI50 does the source give for `CCN1CCN(C(=O)[C@]23CC[C@@H](C)[C@H](C)[C@@H]2C2=CC[C@@H]4[C@@]5(C)CCC(=O)C(C)(C)[C@@H]5CC[C@@]4(C)[C@]2(C)CC3)CC1` here?
**A.** The GI50 was 0.931 µM.

**Q.** And the TGI?
**A.** Its TGI is 2.32 µM.

**Q.** Which results are given for `COc1c(C(N)=O)cc(-c2ccc(Cl)cc2)cc1-c1ccc(S(N)(=O)=O)cc1`?
**A.** GI50: 4.33 µM; TGI: 11.1 µM

**Q.** Which GI50 does the source give for `C=CCc1c(O)c(C(=O)/C=C/c2ccc(Cl)cc2)c(OC)c2ccoc12` here?
**A.** Its GI50 is 2.27 µM.

**Q.** What about the TGI of the same molecule?
**A.** Its TGI is 5.84 µM.

**Q.** What does the source list for `O=C1/C=C/[C@@H](O)[C@@H]2C[C@@H](O)C[C@H]2/C=C/CCC[C@H](CCO)O1`?
**A.** GI50: 0.0239 µM; TGI: 0.0757 µM

**Q.** Which GI50 does the source give for `Cc1nnc(N/N=C/c2ccc([N+](=O)[O-])o2)[nH]c1=O` here?
**A.** Its GI50 is 0.749 µM.

**Q.** What about the TGI of the same molecule?
**A.** The TGI was 12.2 µM.

**Q.** Which results are given for `CC1Cc2c(Cl)ncnc2N(C)c2ccccc21` (configuration not stated)?
**A.** GI50: 1.6 µM; TGI: 6.81 µM

**Q.** For `Cc1ccc2sc3c(NCCCN)nc4ccccc4c3c(=O)c2c1`, which GI50 is on record?
**A.** Its GI50 is 1.67 µM.

**Q.** What about the TGI of the same molecule?
**A.** Its TGI is 3.36 µM.

**Q.** For `CCC(=O)NC1=C(Cl)C(=O)C(NC(=O)CC)=C(Cl)C1=O`, which GI50 is on record?
**A.** The GI50 was 1.72 µM.

**Q.** What about the TGI of the same molecule?
**A.** Its TGI is 3.66 µM.

**Q.** How did the GI50 turn out when `CCOC(=O)N1CCC(N=C2CSc3nnc(-c4cc(C(F)(F)F)cc(C(F)(F)F)c4)n3N2)CC1` was run?
**A.** The GI50 was 1.74 µM.

**Q.** What about the TGI of the same molecule?
**A.** Its TGI is 4.67 µM.

**Q.** For `CCC[CH2][Sn]1([CH2]CCC)[O]C(=O)c2cccc([N+](=O)[O-])c2C(=O)[O]1`, which GI50 is on record?
**A.** The GI50 was 0.153 µM.

**Q.** What about the TGI of the same molecule?
**A.** Its TGI is 0.449 µM.

**Q.** Which results are given for `COc1cc2ncnc(Oc3ccc(NC(=O)Nc4ccc(CN5CCOCC5)c(C(F)(F)F)c4)c4ccccc34)c2cc1OC`?
**A.** GI50: 0.249 µM; TGI: 1.85 µM

**Q.** Which GI50 does the source give for `CCN(CC)CCOc1nc2ccccc2c2c1-c1ccc(OC)cc1C2=O` here?
**A.** The GI50 was 0.857 µM.

**Q.** What about the TGI of the same molecule?
**A.** Its TGI is 3.26 µM.

**Q.** Which results are given for `c1ccc2c(N=NSc3ncnc4nc[nH]c34)c3ccccc3nc2c1`?
**A.** GI50: 0.549 µM; TGI: 2.34 µM

**Q.** With `COC(=O)Nc1nc2ccc(C(=O)c3cccc(I)c3)cc2[nH]1` as the molecule, how does the GI50 read?
**A.** The GI50 was 0.0598 µM.

**Q.** What about the TGI of the same molecule?
**A.** Its TGI is 2.14 µM.
